A short description of data set [1]: Metabolic stability in human liver microsomes. It counts as in vitro ADME. The protocol:
Metabolic Stability Study
The metabolic stability of compounds in human, dog, rat and mouse liver microsomes was performed according the experimental conditions reported below:
• a) Prepare the following 5 stock solutions: • 1. Test compound stock solutions: dilute 10 mM solution of dextromethorphan (Dtr) in DMSO, 10 mM solution of diphenhydramine (DPA) in DMSO, 10 mM solution of omeprazole (Ome) in DMSO, 10 mM solution of verapamil (Ver) in DMSO, and 10 mM of an inverse agonist compound in DMSO to 0.25 mM solution each with acetonitrile/water (70/30). • 2. Buffer: 100 mM potassium phosphate Buffer (PBS) at pH 7.4 • 3. Liver microsomes (20 mg/ml): Thaw in 37° C. water bath quickly • 4. 2000 μL: of NADPH regenerating system (1.3 mM). Place this system on ice before use:
• 5. […] The test compound concentration in the wells, measured by LC-MS/MS, represents the concentration at time=0. • f) To determine the test compound concentration when t≠0, pre-incubate the NADPH regenerating system and the incubation plate containing the remaining 320 μL of incubation mixture (microsomes protein and test compound) for 5 minutes at 37° C. • g) Start the incubation reaction by adding 80 μL NADPH regenerating system to each well containing the remaining 320 μL incubation mixture. • h) After 10 min., 30 min., and 90 min. of incubation at 37° C., transfer 100 μL of the incubation mixture (microsomes protein, test compound, and NADPH) into the wells of a stop plate pre-filled with 300 μL of the cold quench solution. Shake well. • i) Centrifuge the stop plate at 5000×g for 10 minutes. Collect and dilute the supernatant 3 times with distilled water. Sample and analyze the test compound concentration for all the wells by LC-MS/MS. Animal PK Studies via i.v. (intravenous), p.o. (orally) and s.c. (subcutaneous) administrations
(Microsomes from liver hold many membrane-bound enzymes, among them those of drug oxidation.)

The target in data set [2] is T1, GHSR-1a (HEK293/GHSR1a cell line) (Homo sapiens, UniProt Q92847).
T1 construct: expressed in transfected cells; host or cells: HEK293/GHSR1a cell line
Put plainly: Ghrelin antagonist potency (IC50) with calcium FLIPR assay, ghrelin 10 nM. It counts as cell-based. The settings on record: ghrelin antagonist potency. Put shortly:
(§1)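 Fluorescence read-out of intracellular calcium over 2 min. Agonist EC50 came from compound added alone at t=20 sec. Antagonist IC50 came from the reduction of the response to 10 nM ghrelin co-added with compound at t=20 sec. Both were fitted from dose-response data.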

The target in data set [3] is T2, recombinant human ghrelin receptor (HEK293/GRLN) (Homo sapiens, UniProt Q92847).
T2 construct: expressed in transfected cells
Description: Ghrelin inverse agonist potency (EC50) with IP-1 (IP-One HTRF) assay. Particulars: IP-1 assay. It counts as cell-based. Summed up: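 IP-1 accumulation was measured by HTRF (IP1-d2/Tb-cryptate, 620/665 nm read after 1 hour at room temperature) following 1 hour of compound treatment at 37° C. Cells were HEK293 stably expressing human ghrelin receptor, plated a day earlier on Matrigel. Inverse agonist potency was reported as EC50.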

The target in data set [4] is T1, GHSR-1a (HEK293/GHSR1a cell line). Put plainly: Ghrelin agonist potency (EC50) with calcium FLIPR assay. It counts as cell-based. The settings on record: ghrelin agonist potency, read-out: Activity EC50/EMax. Put shortly: as §1
Data set [5] in a line: Animal PK study in mouse via i.v., p.o. and s.c. administration. It counts as in vivo. The settings on record: for PK CLiv / PK Vdiv / PK t1/2iv: i.v.; for PK CLpo / PK Vdpo / PK t1/2po: p.o. On the procedure: All treated animals received a single dose of a test compound (either through i.v., p.o., or s.c. administration) according to the regimen shown in the following table:
For oral dose groups, appropriate amount of test compound was prepared in the following formulation carrier: 1% DMSO (increase to 5% maximum if necessary) and 0.5% Methycellulose. Each mouse or rat received by oral gavage 10 mL/kg of the formulation mixture.
For i.v. and s.c dose groups, appropriate amount of test compound was dissolved in 1% DMSO (increase to 5% maximum if necessary), 99% of 20% HP-β-Cyclodextron (w/v). The pH was adjusted accordingly. Each mouse or rat received 5 mL/kg of the formulation mixture. i.v. dose was administered by tail vein injection. Subcutaneous injection was administered over the shoulders, into the loose skin over the neck. At designated time points (e.g., i.v. and s.c.: 0.083, 0.25, 0.5, 1, 2, 4, 8 and 24 hrs; p.o.: 0.25, 0.5, 1, 2, 4, 8 and 24 hrs), systemic samples of blood (50 μL in mouse or 500 μL in rat) were collected by puncture (submandibular vein in mouse or jugular vein in rat) into vacutainers containing EDTA-K2 as anti-coagulant. The blood was centrifuged at 6000 rpm for 8 min at 4° C. to obtain plasma. All plasma samples were stored at −20° C. All plasma samples were added to acetonitrile for protein precipitation and quantitatively analyzed by LC-MS/MS.

[6] abbreviates: ghrelin inverse agonist potency, read-out: Activity EC50.
Where [7] appears, read: inverse agonist potency, read-out: EC50 (Activity).

pEC50, pIC50: −log10 of the molar value. Where two headings read alike, the source gives them in different places.

T2 sequence (Q92847 whole entry): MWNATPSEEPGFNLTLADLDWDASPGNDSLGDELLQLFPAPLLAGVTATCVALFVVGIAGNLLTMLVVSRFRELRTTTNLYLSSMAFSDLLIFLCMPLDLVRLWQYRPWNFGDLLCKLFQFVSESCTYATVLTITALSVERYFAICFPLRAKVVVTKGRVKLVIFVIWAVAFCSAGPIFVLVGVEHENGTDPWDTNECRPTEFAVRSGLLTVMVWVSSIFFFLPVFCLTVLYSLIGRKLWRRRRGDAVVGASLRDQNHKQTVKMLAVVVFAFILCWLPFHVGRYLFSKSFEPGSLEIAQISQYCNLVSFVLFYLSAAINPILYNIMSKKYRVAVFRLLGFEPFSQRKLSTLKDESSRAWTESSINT
T1 sequence (Q92847 whole entry): as above

Consider `CC(c1ccccc1F)N(O)C(=O)Nc1ccc(S(=O)(=O)Cc2ccc3c(c2)CNC3)cc1.Cl` (stereo not shown) [H1490, 1-(1-(2-fluorophenyl)ethyl)-1-hydroxy-3-(4-((isoindolin-5-ylmethyl)sulfonyl)phenyl)urea], for which, in data set [1], the “Metabolic Stability Study H = human” value is given as “H = 12.8 μL/min/mg”. In data set [2] (read-out: Activity IC50), the pIC50 (as a rule, −log10 of the IC50, conventionally taken in molar units) was 8.27. Further, the pEC50 in data set [3] (setting [6]) was 8.44; in data set [4] it was under 4.52.

As to `COc1cc(S(=O)(=O)Cc2ccc3c(c2)CNC3)ccc1NC(=O)N(O)C(C)c1cccc(Cl)c1Cl` (stereo not shown) [H1495, 1-(1-(2,3-dichlorophenyl)ethyl)-1-hydroxy-3-(4-((isoindolin-5-ylmethyl)sulfonyl)-2-methoxyphenyl)urea], in data set [1], the “Metabolic Stability Study H = human” value was “H = 21.1 μL/min/mg”. Further, the pIC50 in data set [2] (read-out: Activity IC50) is 8.67. Further, the values for the pEC50 in data set [3] (setting [6]) and in data set [4] were 8.92 and under 4.52, respectively.

Turning to `CC(NC(=O)Nc1ccc(S(=O)(=O)Cc2ccc3c(c2)CNC3)c(Cl)c1)c1ccccc1` (stereo not shown) [H1494, 1-(3-chloro-4-((isoindolin-5-ylmethyl)sulfonyl)phenyl)-3-(1-phenylethyl)urea], the “Metabolic Stability Study H = human” value in data set [1] was “H = 19.1 μL/min/mg”. Also, the negative logarithm of the IC50 (pIC50) in data set [2] (read-out: Activity IC50) was 7.97. For the same compound, the results for the pEC50 in data set [3] (setting [6]) and in data set [4] were 8.40 and under 4.52, respectively.

Regarding `CCOC(=O)N1CCc2cc(NS(=O)(=O)c3ccc(NC(=O)N[C@@H](C)c4cccc(Cl)c4Cl)cc3)ccc2C1` [H1054, ethyl (S)-6-((4-(3-(1-(2,3-dichlorophenyl)ethyl)ureido)phenyl)sulfonamido)-3,4-dihydroisoquinoline-2(1H)-carboxylate], in data set [5], the “PK F” value is on record as 3.0%, the “PK CLiv” value amounted to 1.62 L/h/kg, the “PK Vdiv” value is 4.32 L/kg and the “PK t1/2iv” value is 1.85 h. For the same compound, in data set [5], the “PK CLpo” value worked out at 53.9 L/h/kg, the “PK Vdpo” value worked out at 96.2 L/kg and the “PK t1/2po” value came out at 1.24 h. Besides, in data set [2] (read-out: IC50 (Activity)), the pIC50 is 5.00.

For `CNC(=O)c1cc(S(=O)(=O)Cc2ccc3c(c2)CNC3)ccc1NC(=O)NC(C)c1ccccc1` (stereo not shown) [H1499, 5-((isoindolin-5-ylmethyl)sulfonyl)-N-methyl-2-(3-(1-phenylethyl)ureido)benzamide], the “Metabolic Stability Study H = human” value in data set [1] was “H = 27.1 μL/min/mg”. Also, the negative logarithm of the IC50 (pIC50) in data set [2] (read-out: Activity IC50) was 7.42. Moreover, the results for the pEC50 in data set [3] (setting [6]) and in data set [4] were 8.15 and under 4.52, respectively.

As for `Cc1cc(NC(=O)NC(C)c2ccccc2)ccc1S(=O)(=O)Cc1ccc2c(c1)CNC2` (stereo not shown) [H1493, 1-(4-((isoindolin-5-ylmethyl)sulfonyl)-3-methylphenyl)-3-(1-phenylethyl)urea], the “Metabolic Stability Study H = human” value in data set [1] is recorded as “H = 21.5 μL/min/mg”. For the same compound, in data set [2] (read-out: Activity IC50), the pIC50 is 7.82. Further, the pEC50 in data set [3] (setting [6]) was 8.38; in data set [4] it was under 4.52.

As to `CC(NC(=O)Nc1ccc(S(=O)(=O)Cc2ccc3c(c2)CN(C)C3)cc1-c1ncco1)c1ccccc1` (stereo not shown) [H1501, 1-(4-(((2-methylisoindolin-5-yl)methyl)sulfonyl)-2-(oxazol-2-yl)phenyl)-3-(1-phenylethyl)urea], the “Metabolic Stability Study H = human” value in data set [1] was “H = 319.6 μL/min/mg”. Further, the pIC50 in data set [2] (read-out: Activity IC50) is 6.93. Moreover, the pEC50 in data set [3] (setting [6]) was 7.74; in data set [4], under 4.52.

In the case of `CC(c1ccccc1F)N(O)C(=O)Nc1ccc(S(=O)(=O)Cc2ccc3c(c2)CN(C)C3)cc1` (stereo not shown) [H1491, 1-(1-(2-fluorophenyl)ethyl)-1-hydroxy-3-(4-(((2-methylisoindolin-5-yl)methyl)sulfonyl)phenyl)urea], in data set [1], the “Metabolic Stability Study H = human” value was “H = 79.5 μL/min/mg”. Moreover, the pIC50 in data set [2] (read-out: Activity IC50) is 7.53. Besides, the pEC50 in data set [3] (setting [6]) is 8.34; in data set [4], under 4.52.

As for `COc1cc(S(=O)(=O)Cc2ccc3c(c2)CN(C)C3)ccc1NC(=O)N(O)C(C)c1cccc(Cl)c1Cl` (stereo not shown) [H1496, 1-(1-(2,3-dichlorophenyl)ethyl)-1-hydroxy-3-(2-methoxy-4-(((2-methylisoindolin-5-yl)methyl)sulfonyl)phenyl)urea], the “Metabolic Stability Study H = human” value in data set [1] is recorded as “H = 178.3 μL/min/mg”. For the same compound, the pIC50 in data set [2] (read-out: Activity IC50) was 8.23. The results for the pEC50 in data set [3] (setting [6]) and in data set [4] were 8.60 and under 4.52, respectively.

With `CC(NC(=O)Nc1ccc(S(=O)(=O)Cc2ccc3c(c2)CNC3)cc1-c1ncco1)c1ccccc1` (stereo not shown) [H1500, 1-(4-((isoindolin-5-ylmethyl)sulfonyl)-2-(oxazol-2-yl)phenyl)-3-(1-phenylethyl)urea], the “Metabolic Stability Study H = human” value in data set [1] is given as “H = 61.4 μL/min/mg”. Moreover, the negative logarithm of the IC50 (pIC50) in data set [2] (read-out: Activity IC50) is 7.79. Moreover, the values for the pEC50 in data set [3] (setting [6]) and in data set [4] were 8.21 and under 4.52, respectively.

For `CC(NC(=O)Nc1ccc(S(=O)(=O)Cc2ccc3c(c2)CNC3)c(F)c1)c1ccccc1.Cl` (stereo not shown) [H1492, 1-(3-fluoro-4-((isoindolin-5-ylmethyl)sulfonyl)phenyl)-3-(1-phenylethyl)urea], the “Metabolic Stability Study H = human” value in data set [1] is on record as “H = 24.4 μL/min/mg”. Besides, the pIC50 in data set [2] (read-out: Activity IC50) was 7.44. The pEC50 in data set [3] (setting [6]) was 8.29; in data set [4], under 4.52.

On to `COc1ccc([C@H](C)NC(=O)Nc2ccc(S(=O)(=O)Nc3ccc4c(c3)CCNC4)cc2)c(Cl)c1Cl.Cl` [H1005, (S)-4-(3-(1-(2,3-dichloro-4-methoxyphenyl)ethyl)ureido)-N-(1,2,3,4-tetrahydroisoquinolin-6-yl)benzenesulfonamide], for which, in data set [5], the “PK F” value turned out to be 1.3%, the “PK CLiv” value is listed as 0.44 L/h/kg, the “PK Vdiv” value amounted to 1.46 L/kg and the “PK t1/2iv” value worked out at 2.3 h. Further, in data set [5], the “PK CLpo” value is on record as 33.33 L/h/kg, the “PK Vdpo” value amounted to 112.3 L/kg and the “PK t1/2po” value turned out to be 2.33 h. In addition, the pIC50 in data set [2] (read-out: IC50 (Activity)) is 7.70. Also, the pEC50 in data set [3] (setting [7]) is 8.05.

Consider `CC(NC(=O)Nc1ccc(S(=O)(=O)Cc2ccc3c(c2)CNC3)c(Br)c1)c1ccccc1` (stereo not shown) [H1504, 1-(3-bromo-4-((isoindolin-5-ylmethyl)sulfonyl)phenyl)-3-(1-phenylethyl)urea], for which the “Metabolic Stability Study H = human” value in data set [1] is “H = 19.3 μL/min/mg”. In addition, in data set [2] (read-out: Activity IC50), the pIC50 is 8.19. Also, the pEC50 in data set [3] (setting [6]) is 8.26; in data set [4], under 4.52.

As to `C[C@H](NC(=O)Nc1ccc(S(=O)(=O)Nc2ccc3c(c2)CCNC3)cc1)c1cccc(Cl)c1Cl.Cl` [H1004, (S)-4-(3-(1-(2,3-dichlorophenyl)ethyl)ureido)-N-(1,2,3,4-tetrahydroisoquinolin-6-yl)benzenesulfonamide], in data set [5], the “PK F” value is recorded as 13%, the “PK CLiv” value stood at 35.5 L/h/kg, the “PK Vdiv” value turned out to be 37.7 L/kg and the “PK t1/2iv” value is reported as 0.74 h. Moreover, in data set [5], the “PK CLpo” value is 223.9 L/h/kg, the “PK Vdpo” value was determined as 479.2 L/kg and the “PK t1/2po” value was determined as 1.48 h. Moreover, the pIC50 in data set [2] (read-out: IC50 (Activity)) was 8.43. For the same compound, the pEC50 in data set [3] (setting [7]) was 8.40.
